Experimental data published in patent publication US20240197738A1, “COMPOUND 7AI IN TREATING EWING SARCOMA BY INHIBITING OTUD7A” (The University of North Carolina at Chapel Hill, priority 2021, published 2024).

Legend:
[1] = test system: A673 cells xenografted tumor; test: Mouse xenograft assay with A673 cells; assay type: in vivo, nude mice
Procedure: All mouse work has been reviewed and approved by UNC Institutional Animal Care and Use Committee under IACUC #19-031. Mouse xenograft assays were performed as described previously. Briefly, for mouse xenograft experiments, 2.5×10^6 parental or EWS-FLI1-3A knockin A673 cells were mixed 1:1 with matrigel (Corning 354230) and injected into the flank of indicated female nude mice (NCRNU-M-M from UNC Animal Facility, 4 weeks old). Six days post-injection, when the tumors were established, 2% sucrose with or without 1 μg/mL tetracycline was supplied in water for mice and refreshed every 5 days. Tumor size was measured every two days with a digital caliper, and the tumor volume was determined with the formula: L×W^2×0.52, where L is the longest diameter and W is the shortest diameter. After 22 days, mice were sacrificed, and tumors were dissected and weighed.
For 7Ai treatment in nude mice, 2.5×10^6 A673 cells were mixed 1:1 with matrigel (Corning 354230) and injected into the flank of indicated female nude mice (NCRNU-M-M from UNC Animal Facility, 4 weeks old). Seven days post-injection, when the tumors were established, 100 μL 7Ai (25 mg/kg, dissolved in ethanol followed by the addition of sunflower oil and then sonicated at 4° C. in a water bath sonicator until 7Ai was completely dissolved) was given to mice through IP injections and this treatment was repeated every 3 days.
Freshly dissected xenografted tumors are immediately fixed in 10% formalin for 2 days before transferring to 80% ethanol for one day to prepare tumor blocks. 4-μm sections were cut from each of the tumor blocks by UNC TPL facility and used for IHC study. IHC was performed as described previously. Normal human tissue TMA was purchased from UNC TPL facility. Human Ewing sarcoma tissues were obtained post-mortem and fixed in 10% formalin and embedded in paraffin.

[2] = test system: EWS-FLI1 target genes (NKX2.2, PSPH, LOX, TGFBR2); test: RT-PCR of EWS-FLI1 downstream target genes; assay type: cell-based, human
Procedure: (§1) Cells were isolated by dissociation with 0.05% Trypsin, followed by media quenching. The cells were spun down at 300×rcf for 5 minutes. The media was aspirated, the pellet was suspended with 1×PBS, and then the cells were spun down again. The PBS was aspirated. RNA extraction was performed with an RNA extraction kit (BioBasic BS584). The final elution step was done with 50 μL of RNAse-free water. The […] with the NanoDrop OneC (Thermo Fisher Scientific). Three biological replicates were performed for RNA extraction. Quartile analysis was done to exclude outliers and significance was determined by one-way ANOVA tests.

EWS-FLI1 mRNA = test: RT-PCR of EWS-FLI1 mRNA levels; assay type: cell-based, human; conditions: 7Ai treatment
Procedure: as §1

OTUD7B = target: T1, OTUD7B (Homo sapiens, UniProt Q6GQQ9); test: Immunoblot of known OTUD7B substrates (mTORC2, APC/Cdh1); assay type: cell-based; conditions: MHH-ES-1 or EWS894 cells, 12 hrs (FIG. 5E)
T1 construct: endogenous in cells; host or cells: MHH-ES-1, EWS894
Procedure: (§2) Cells were lysed in EBC buffer (50 mM Tris pH 7.5, 120 mM NaCl, 0.5% NP-40) or Triton X-100 buffer (50 mM Tris pH 7.5, 150 mM NaCl, 1% Triton X-100) supplemented with protease inhibitors (Complete Mini, Roche) and phosphatase inhibitors (phosphatase inhibitor cocktail set I and II, Calbiochem). The protein concentrations of whole cell lysates were measured by NanoDrop OneC using the Bio-Rad protein assay reagent as described previously. Equal amounts of whole cell lysates were resolved by SDS-PAGE and immunoblotted with indicated antibodies. For immunoprecipitations analysis, unless specified, 1000 μg lysates were incubated with the indicated antibody (1-2 μg) for 3-4 hr at 4° C. followed by 1 hr incubation with 10 μL Protein A magnetic beads (New England Biolabs). Or 1000 μg lysates containing tagged molecules were incubated with agarose beads coupled antibodies for the specific tag for 3-4 hr at 4° C. For endogenous IPs, incubation of cell lysates with antibodies was extended to overnight. The recovered immuno-complexes were washed five times with NETN buffer (20 mM Tris, pH 8.0, 100 mM NaCl, 1 mM EDTA and 0.5% NP-40) before being resolved by SDS-PAGE and immunoblotted with indicated antibodies.

EWS-ERG = test: Immunoblot of EWS-ERG protein levels; assay type: cell-based, human; conditions: A673 cells with EWS-ERG replacing EWS-FLI1
Procedure: as §2

[3] = target: T2, His-tagged OTUD7A OTU domain (aa183-449) (Homo sapiens, UniProt Q8TE49); test: Isothermal titration calorimetry (ITC) of 7Ai with OTUD7A OTU domain; conditions: bacterially produced His-tagged OTUD7A OTU domain (aa183-449), read-out: binding affinity of 7Ai in vitro (ITC)
T2 construct: the bacterially produced His-tagged OTUD7A OTU domain (aa183-449) was purified; made in house; host or cells: E. coli BL21 (pET28a vector)
Procedure: ITC measurements were performed using a MicroCal auto-iTC200 calorimeter (MicroCal, LLC) as described previously. Briefly, His-tagged OTU domain of OTUD7A proteins were purified using BL21 strain upon induced by 0.3 mM IPTG when OD600 around 0.6 overnight at 16° C. Then purified human His-tagged OTU domain of OTUD7A was dialyzed against 50 mM HEPES buffer (pH 7.2) with 100 mM NaCl for overnight at 4° C. The concentration of the protein was determined by band intensity in a gel-cod staining SDS-PAGE gel. The ITC assay was carried out at 37 °C. The dialyzed His-OTUD7A-OTU proteins were diluted to 40 μM in the dialysis buffer containing 4% DMSO. Then, 400 μM 7Ai, dissolved in the same dialysis buffer with 4% DMSO (50 mM HEPES buffer (pH 7.2) with 100 mM NaCl) was injected into 0.4 mL of His-OTUD7A-OTU protein in the chamber for every 180 s. The dissociation constants and thermodynamic parameters were determined by using the embedded software package Origin7 (Microcal).

Ewing sarcoma cell = Ewing sarcoma cell growth in vitro (effective dose); assay type: cell-based, human
Procedure: 2,000 indicated cells were seeded in each well of 96-well plates for MTT assays to monitor cell viability at indicated time periods using a method adapted from https://www.thermofisher.com/us/en/home/references/protocols/cell-culture/mtt-assay-protocol/vybrant-mtt-cell-proliferation-assay-kit.html. Briefly, at indicated time points post-cell seeding, 10 μL MTT solution was added into each well and incubated in the culture incubator (37° C. with 5% CO2) for 4 hrs. Then medium was removed and 100 μL DMSO was added into each well to dissolve the formazan crystal and incubated for 10 min at 37° C. After thorough mixing, absorbance at 540 nm was measured using the BioTek Cytation 5 Cell Imaging reader.

T1 sequence (Q6GQQ9 whole entry): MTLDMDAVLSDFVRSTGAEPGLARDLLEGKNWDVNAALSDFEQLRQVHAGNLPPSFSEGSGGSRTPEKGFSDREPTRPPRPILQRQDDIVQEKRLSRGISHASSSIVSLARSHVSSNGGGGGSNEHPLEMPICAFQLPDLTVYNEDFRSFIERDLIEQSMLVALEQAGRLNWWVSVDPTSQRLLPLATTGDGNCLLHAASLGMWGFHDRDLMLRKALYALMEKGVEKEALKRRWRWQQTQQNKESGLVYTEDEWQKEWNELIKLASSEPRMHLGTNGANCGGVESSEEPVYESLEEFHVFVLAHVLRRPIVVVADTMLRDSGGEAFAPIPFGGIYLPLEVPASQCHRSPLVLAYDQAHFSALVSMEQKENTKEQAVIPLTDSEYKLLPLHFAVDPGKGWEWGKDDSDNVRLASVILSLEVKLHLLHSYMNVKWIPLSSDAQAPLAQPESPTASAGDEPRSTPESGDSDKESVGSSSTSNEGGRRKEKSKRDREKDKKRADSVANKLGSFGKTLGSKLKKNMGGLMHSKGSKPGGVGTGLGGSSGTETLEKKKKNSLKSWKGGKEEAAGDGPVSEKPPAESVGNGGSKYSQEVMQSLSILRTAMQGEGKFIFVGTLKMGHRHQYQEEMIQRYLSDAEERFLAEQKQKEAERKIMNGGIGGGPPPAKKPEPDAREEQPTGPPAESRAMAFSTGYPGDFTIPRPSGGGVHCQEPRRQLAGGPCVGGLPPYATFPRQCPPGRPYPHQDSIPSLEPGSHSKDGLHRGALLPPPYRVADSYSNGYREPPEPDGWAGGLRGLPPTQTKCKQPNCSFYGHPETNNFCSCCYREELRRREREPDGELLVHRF
T2 sequence (Q8TE49 183-449): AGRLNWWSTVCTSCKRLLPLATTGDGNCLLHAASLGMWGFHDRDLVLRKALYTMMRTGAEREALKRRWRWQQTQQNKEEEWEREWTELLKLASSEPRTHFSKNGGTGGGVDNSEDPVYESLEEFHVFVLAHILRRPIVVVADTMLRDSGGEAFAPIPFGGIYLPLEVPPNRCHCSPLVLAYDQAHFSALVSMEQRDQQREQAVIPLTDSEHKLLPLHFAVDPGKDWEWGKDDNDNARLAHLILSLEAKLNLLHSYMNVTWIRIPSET

## Cn1nccc1-c1cc(-c2ccnn2C)n2nc(C(=O)Nc3cnn(Cc4c(Cl)cccc4Cl)c3)cc2n1 [7Ai]
[1]; A673 xenograft in nude mice, 25 mg/kg IP, vs vehicle (FIG. 5P)
  tumor volume: significantly reduced tumor volume
[1]; A673 xenograft in nude mice, 25 mg/kg IP, vs vehicle (FIGS. 5Q-5R)
  tumor growth (dissected tumors, weight): significantly reduced
[1]; A673 xenograft tumors, IHC
  EWS-FLI1 protein in treated tumors: reduced EWS-FLI1 protein
  apoptosis in treated tumors (cleaved-caspase3 staining): increased apoptosis
  cell proliferation in treated tumors (Ki67 staining): reduced
[1]; nude mice, 25 mg/kg IP, 3-week treatment period
  body weight: did not significantly affect body weight
[2]; A673 cells (FIGS. 5K-5L)
  transcription of EWS-FLI1 target genes NKX2.2 and PSPH: reduced transcription of EWS-FLI1 target genes
[2]; A673 cells (FIGS. 5M-5N)
  transcription of genes negatively regulated by EWS-FLI1 (LOX and TGFBR2): increased transcription of genes negatively regulated by EWS-FLI1
EWS-FLI1 mRNA
  EWS-FLI1 mRNA levels: did not affected EWS-FLI1 mRNA levels
OTUD7B
  OTUD7B activities (known OTUD7B substrates mTORC2 and APC/Cdh1): did not significantly affect OTUD7B activities
EWS-ERG
  EWS-ERG protein levels: reduced EWS-ERG protein levels
[3]
  Kd: ~1100 nM
Ewing sarcoma cell
  effective dose in retarding Ewing sarcoma cell growth in vitro: about 10 μM
